16 molecules from paper PMC10535535, “Imidazopyridine-Based Thiazole Derivatives as Potential Antidiabetic Agents: Synthesis, In Vitro Bioactivity, and In Silico Molecular Modeling Approach” (Pharmaceuticals, 2023) can be followed below.

The target of the first assay is α-glucosidase. In words: α-glucosidase inhibition assay (pNPG, spectrophotometric). As to conditions: in vitro, pNPG substrate, 37 °C, triplicate; read-out: IC50 ± SEM. It counts as biochemical. The protocol: With slight modification to an earlier technique, the α-glucosidase inhibition profiles of the synthesized scaffolds were assessed spectrophotometrically. Amounts of 10 μL of the sample, 120 μL of 100 mM potassium phosphate buffer, and […] of a 0.5 U/mL α-glucosidase solution (0.3 mM, in buffer) were combined for each chemical. […] Each combination was incubated at 37 °C for a separate period of 15 min. […] Once more, the mixture was incubated for 15 min at 37 °C. At that point, 80 μL of a 0.2 M sodium carbonate solution was administered to terminate the process. The mixture that included no enzymes also functioned as a blank sample. At 405 nm, the absorbance was finally calculated. To accurately measure the background absorbance, the blank sample, which replaced the substrate with 50 μL of the buffer, was examined. […] Assuming that A represents the absorbance of the control without test samples and B represents the absorbance with test samples present, the percentage of enzyme inhibition was computed as (1 B/A) 100. […] 4.4. Assay protocol for α-glucosidase inhibition The α-glucosidase inhibition profiles of synthesized scaffolds were determined spectrophotometrically, with some modifications to an earlier method. For each chemical, 10 μL of the sample, 120 μL of 100 mM potassium phosphate buffer, and 20 μL of 0.5 U/mL alpha-glucosidase solution was mixed (0.3 mM, in buffer). […] At 37 °C, each mixture was incubated for a separate 15 minutes. The enzymatic reaction was initiated by adding 20 μL of the substrate 4-nitrophenyl- D-α-glucopyranoside (pNPG) (5 mM) to the solution. The mixture was once more incubated at 37 °C for 15 minutes. To stop the process at that point, 80μL of sodium carbonate solution were injected (0.2 M). Additionally, the mixture without any enzymes served as a blank sample. The absorbance was finally determined at 405 nm. The blank sample, in which the substrate was swapped out for 50 μL of the buffer, was analyzed to properly quantify the background absorbance. […] The percentage of enzyme inhibition was calculated as (1 B/A) 100, assuming that A represents the absorbance of the control without test samples and B represents the absorbance with test samples present. The analyses were carried out in triplicate, and the results were presented as mean SD. 4.5. […] On the Discovery Studio R2 64-bit Client system, interactive molecular structure visualization and analysis were done. From the RCSB Protein Data Bank, the three-dimensional (3D) structure of α-glucosidase was retrieved (PDB). The chemical structures of the ligands were obtained from the Pub Chem compound database. Using Open Babel, the PDB files were converted into PDBQT files. For docking analysis, the PDB coordinates of the ligands and targets were optimized. Geometry optimization is carried out using Gaussian 09 (adding missing residues). […] Further details were summarized in our previous articles.
Turning to `Oc1ccc(-c2csc(N/N=C\c3cnc4ccc(F)cn34)n2)c(O)c1` [4p], the IC50 was 10.5 ± 2.2 µM.
Consider `Cc1ccc(-c2ccc(-c3csc(N/N=C\c4cnc5ccc(F)cn45)n3)cc2)cc1` [4n], for which the IC50 was 61.4 ± 4.56 µM.
With `Fc1ccc2ncc(/C=N\Nc3nc(-c4ccc(-c5ccccc5)cc4)cs3)n2c1` [4c], the IC50 was found to be 63.5 ± 5.28 µM.
The same measure, in the same setting: next, `Fc1ccc2ncc(/C=N\Nc3nc(-c4ccc(Cl)cc4Cl)cs3)n2c1` [4l]: 19.3 ± 2.58 µM; `CN(C)c1ccc(-c2csc(N/N=C\c3cnc4ccc(F)cn34)n2)cc1` [4d]: 32.1 ± 4.29 µM; `O=[N+]([O-])c1cc(Cl)ccc1-c1csc(N/N=C\c2cnc3ccc(F)cn23)n1` [4b]: 13.6 ± 1.67 µM.
For `Cc1ccccc1-c1csc(N/N=C\c2cnc3ccc(F)cn23)n1` [4h], the IC50 was determined as 43.2 ± 6.16 µM.
Turning to `O=[N+]([O-])c1ccc(O)c(-c2csc(N/N=C\c3cnc4ccc(F)cn34)n2)c1` [4o, (Z)-2-(2-(2-((6-fluoroimidazo[1,2-a]pyridin-3-yl)methylene)hydrazineyl)thiazol-4-yl)-4-nitrophenol], the IC50 is 7.16 ± 1.4 µM.
For the molecule `Cc1ccc(-c2csc(N/N=C\c3cnc4ccc(F)cn34)n2)c(C)c1` [4f], the IC50 amounted to 51 ± 5.8 µM.
For the molecule `COc1ccc(-c2csc(N/N=C\c3cnc4ccc(F)cn34)n2)c(OC)c1` [4m], the IC50 was determined as 56.3 ± 5.94 µM.
Take `O=[N+]([O-])c1ccc(C(F)(F)F)c(-c2csc(N/N=C\c3cnc4ccc(F)cn34)n2)c1` [4g]: the IC50 turned out to be 5.57 ± 3.45 µM.
`COc1cc(C)ccc1-c1csc(N/N=C\c2cnc3ccc(F)cn23)n1` [4e]: the IC50 stood at 44.9 ± 5.27 µM.
As to `Cc1cc(Cl)ccc1-c1csc(N/N=C\c2cnc3ccc(F)cn23)n1` [4k], the IC50 was 34.7 ± 5.23 µM.
Same read-out and setting: to `COc1cc(O)ccc1-c1csc(N/N=C\c2cnc3ccc(F)cn23)n1` [4i] belongs 34.9 ± 5.84 µM; to `O=[N+]([O-])c1cc(-c2csc(N/N=C\c3cnc4ccc(F)cn34)n2)cc(C(F)(F)F)c1` [4a], 6.85 ± 2.18 µM; to `Cc1ccc(-c2csc(N/N=C\c3cnc4ccc(F)cn34)n2)c([N+](=O)[O-])c1` [4j], 22.6 ± 3.55 µM.

The same assay, now with this note: unit not given; in µM.
For the molecule `COc1cc(O)ccc1-c1csc(N/N=C\c2cnc3ccc(F)cn23)n1` [4i], the IC50 came to 34.91 ± 5.84.

The assay is the same for the next values; noted with them: versus acarbose.
In the case of `Fc1ccc2ncc(/C=N\Nc3nc(-c4ccc(Cl)cc4Cl)cs3)n2c1` [4l], the “potency as compared to the standard drug” value is given as “two-fold more potency”.
On the same count and under the same terms, to `Cc1ccc(-c2csc(N/N=C\c3cnc4ccc(F)cn34)n2)c([N+](=O)[O-])c1` [4j] belongs “two-fold more potency”.
